“Also recorded” adds a separate entry of the source. Where two headings read alike, the source gives them in different places.
Assays:
[1] = tested on: participants with SSc-RP; experiment: SHAQ - Visual Analog Scale - Intestinal Problems; format: in vivo, human
Source text: The standard, validated, patient reported outcome measures tool for SSc patients, the Scleroderma Health Assessment Questionnaire (SHAQ), will be used to assess the participant qualify of life. Details are attached in the Appendix. The participant quality of life will be scored, and a disability index calculated for each questionnaire completed by the patient at Screening and each in-clinic visit. The absolute change in participant quality of life from baseline to the end of each dosing period will be calculated similar to frequency data as before.
The standard, validated, patient reported outcome measures tool for SSc patients, the SHAQ, was collected at the time points specified in the study schedules (FIG. 2 and FIGS. 4A and 4B) to assess the participant's quality of life. The SHAQ included a Raynaud's VAS that will also be reported separately.

[2] = tested on: participants with SSc-RP; format: in vivo
Source text: Treatment-emergent AEs (TEAEs) are defined as AEs that occur or worsen after the dose of study drug. If the timing of the start of an AE could not be determined unambiguously from the start or end dates provided, it will be assumed to be a TEAE. An AE is considered related if the relationship to either of the study drug has been indicated as possibly or probably or definite related by the investigator. An AE leading to study withdrawal is defined as an AE that cause a subject early terminated from the study. AEs will be identified as emerging in the following parts: • TEAEs for Part A will be those that started during Part A (i.e., from the first dose in Part A to end of follow up of Part A) • TEAEs for Part B will be those that started during Part B (i.e., from the first dose in Part B to end of follow-up of Part B).
In this study, AEs and SAEs were reported for all participants from the time of randomization until the completion of the Follow-up/EOS visit. Adverse events that were ongoing at the EOS visit were marked as Not Recovered/Not resolved on the AE eCRF page (see Section 9.4.4). The Investigator did full AE review during in-clinic visit. All spontaneously volunteered and enquired for, as well as observed AEs, were recorded in the participant's medical records and the eCRF.
Severity of AEs were graded by the Investigator as one of: • Mild (Grade 1): A type of AE that is usually transient and may require only minimal treatment or therapeutic intervention.

[3] = tested on: participants with SSc-RP; experiment: Summary of data: dose response / overall response (Table S); format: in vivo, human; conditions: 20 mg dose group
[4] = cited from earlier work
[5] = pooled Cilnidipine 10 mg and Cilnidipine 10 mg + Tadalafil 5 mg
[6] = pooled Cilnidipine 20 mg and Cilnidipine 20 mg + Tadalafil 5 mg
[7] = pooled cilnidipine 10 mg and 20 mg arms (combination: + tadalafil 5 mg)

Question: What does the source list for `COCCOC(=O)C1=C(C)NC(C)=C(C(=O)OC/C=C/c2ccccc2)C1c1cccc([N+](=O)[O-])c1` (centres unmarked) [Cilnidipine]?
Answer: VAS Intestinal Problems Change from Baseline Median [1, 5]: −0.250; VAS Intestinal Problems Change from Baseline Min [1, 5]: −4.40,; VAS Intestinal Problems Change from Baseline Q1 [1, 5]: −3.000,; VAS Intestinal Problems Change from Baseline Q3 [1, 5]: 0.000; VAS Intestinal Problems Day 12 Max [1, 5]: 3.80; VAS Intestinal Problems Day 12 Median [1, 5]: 0.700; VAS Intestinal Problems Day 12 Min [1, 5]: 0.00,; VAS Intestinal Problems Day 12 Q1 [1, 5]: 0.000,; VAS Intestinal Problems Day 12 Q3 [1, 5]: 1.900; VAS Intestinal Problems Percent Change from Baseline Max [1, 5]: 142.9%; VAS Intestinal Problems Percent Change from Baseline Mean [1, 5]: −27.93%; VAS Intestinal Problems Percent Change from Baseline Min [1, 5]: −100.0, %; VAS Intestinal Problems Percent Change from Baseline Q1 [1, 5]: −94.00, %; VAS Intestinal Problems Percent Change from Baseline Q3 [1, 5]: 15.00%; VAS Intestinal Problems Change from Baseline Max [1, 6]: 2.90; VAS Intestinal Problems Change from Baseline Median [1, 6]: 0.000; VAS Intestinal Problems Change from Baseline Min [1, 6]: −1.60,; VAS Intestinal Problems Change from Baseline Q1 [1, 6]: −0.300,; VAS Intestinal Problems Change from Baseline Q3 [1, 6]: 0.600; VAS Intestinal Problems Day 12 Max [1, 6]: 4.50; VAS Intestinal Problems Day 12 Median [1, 6]: 0.200; VAS Intestinal Problems Day 12 Min [1, 6]: 0.00,; VAS Intestinal Problems Day 12 Q1 [1, 6]: 0.000,; VAS Intestinal Problems Day 12 Q3 [1, 6]: 2.100; VAS Intestinal Problems Percent Change from Baseline Max [1, 6]: 181.3%; VAS Intestinal Problems Percent Change from Baseline Median [1, 6]: 30.00%; VAS Intestinal Problems Percent Change from Baseline Min [1, 6]: −100.0, %; VAS Intestinal Problems Percent Change from Baseline Q1 [1, 6]: −88.89, %; VAS Intestinal Problems Percent Change from Baseline Q3 [1, 6]: 40.00%; VAS Intestinal Problems Change from Baseline Max [1, 7]: 0.60; VAS Intestinal Problems Change from Baseline Median [1, 7]: 0.000; VAS Intestinal Problems Change from Baseline Min [1, 7]: −4.40,; VAS Intestinal Problems Change from Baseline Q1 [1, 7]: −3.000,; VAS Intestinal Problems Change from Baseline Q3 [1, 7]: 0.300; VAS Intestinal Problems Day 12 Max [1, 7]: 3.80; VAS Intestinal Problems Day 12 Median [1, 7]: 0.600; VAS Intestinal Problems Day 12 Min [1, 7]: 0.00,; VAS Intestinal Problems Day 12 Q1 [1, 7]: 0.000,; VAS Intestinal Problems Day 12 Q3 [1, 7]: 2.100; VAS Intestinal Problems Percent Change from Baseline Max [1, 7]: 40.0%; VAS Intestinal Problems Percent Change from Baseline Min [1, 7]: −100.0, %; VAS Intestinal Problems Percent Change from Baseline Q1 [1, 7]: −88.00, %; VAS Intestinal Problems Percent Change from Baseline Q3 [1, 7]: 30.00%; tolerability ([2]; 10 mg and 20 mg, alone or in combination with tadalafil): well tolerated; Safety: number of AE ([2]; Cilnidipine 20 mg, HA, mild, n = 8): 1AE (HA−mild; 1; Safety: withdrawals ([2]; Cilnidipine 20 mg, n = 8): 1AE (HA−mild; 1 withdrawal; Safety: withdrawals ([2]; Pooled Cilnidipine, n = 9): T); no withdrawals; treatment discontinuations due to intolerance ([2]; all patients who received any dose of cilnidipine (n=17)): no treatment discontinuations due to intolerance were reported; incidence of Adverse Events / overall adverse event rate ([2]; all patients who received any dose of cilnidipine (n=17), Part A): 17%; Adverse effects ([2]; any Profervia dose): 17% Adverse effects in; severity grade of adverse events ([2]; patients treated with cilnidipine, Part A): only Grade 1 Adverse Events (AEs) were reported; also recorded: only mild (Grade 1) adverse events occurred; Safety: grade of Adverse Events (AEs) ([2]; summary of data): Grade 1 Adverse; Safety: treatment D/Cs (discontinuations) ([2]; summary of data): No treatment D/Cs; Efficacy seen: overall response [3]: shows best overall; CL/F ([4]; 10 mg Cilnidipine, Healthy Volunteers, single oral dose, mean): 304.7 L/h; time to achieve maximal plasma concentrations (Tmax) ([4]; oral dosing): ≤ 2 h

From patent US20240358692A1, “TREATMENT OF SCLERODERMA” (Aisa Pharma, Inc., priority 2023, published 2024)
